Patent US20140221480A1, “METHODS OF MANAGING BRAIN INFLAMMATION” (EMORY UNIVERSITY, priority 2013, published 2014)
“Also recorded” adds a separate entry of the source. Read-outs that look alike come from different tables or passages of the source.

Assays:
Type in all cases: in vivo, mice (C57BL/6J)
[1] = Concentration of TAK-242 in plasma and brain tissue after i.p. injection (LC-MS/MS); details: for concentration at 3 h / concentration at 8 h / concentration at 24 h: male, C57BL/6J, mouse, ip, 3 mg/kg body weight; for concentration at 3 h: 3 hrs after i.p. injection; for concentration at 8 h: 8 hrs after i.p. injection; for concentration at 24 h: 24 hrs after i.p. injection
Description: (§1) Animals—Fifty male mice (C57BL/6J, body weight 25˜30 g) were obtained from Jackson Laboratory and maintained in the Division of Laboratory Animal Resources at Emory University”. The experiments outlined in this manuscript conform to the Guide for the Care and Use of Laboratory Animals published by the National Institutes of Health. The animal care and experimental protocols were approved by the Emory University Committee on Animal Care. Animals were randomly assigned to four groups: sham control (S, n=4, for molecular analysis), focal cerebral ischemia/reperfusion (I/R, n=16; 5 for molecular analysis), Sham+TAK-242 (S-T, n=4, for molecular analysis), and I/R+TAK-242 (I/R-T, n=16; 5 for molecular analysis). Ten mice were used for the measurement of TAK-242 concentration in plasma and brain tissue.
(§2) Focal cerebral ischemia/reperfusion—Focal cerebral FR was induced by occlusion of the middle cerebral artery (MCAO) on the left side. Mice were subjected to anesthesia by 5.0% isoflurane and maintained by inhalation of 1.5% to 2% isoflurane driven by 100% oxygen flow. Mice were ventilated (110 breaths/min with volume 0.5 ml) and body temperature was regulated at 37.0° C. Heart rate and PO2 were monitored during surgery. Following the skin incision, the left common carotid artery (CCA), the external carotid artery (ECA), and the internal carotid artery (ICA) were carefully exposed. Microvascular aneurysm clips were applied to the left CCA and the ICA. A coated 6-0 filament (6023PK, Doccol Corp. CA, USA) was introduced into an arteriotomy hole, fed distally into the ICA and advanced 11 mm from the carotid bifurcation. The ICA clamp was removed and focal cerebral ischemia started. After ischemia for 60 min, the filament and the CCA clamp were gently removed (reperfusion starts). The collar suture at the base of the ECA stump was tightened. The skin was closed, anesthesia discontinued, and the animal allowed to recover in a pre-warmed cage. Control mice underwent a neck dissection and coagulation of the external carotid artery, but no occlusion of the MCA. Ischemia and reperfusion were confirmed by rCBF.
(§3) TAK-242 treatment—TAK-242 was dissolved in DMSO and then diluted in sterile endotoxin-free water and injected intraperitoneally (i.p., 3 mg/kg body weight) 1 hr after MCAO or sham surgical operation.
Measurement of TAK242 concentration in plasma and brain tissue—Three, 8 or 24 hours after the injection of TAK242, the mice were anesthetized with 5.0% isoflurane driven by 100% oxygen flow. Blood (0.95 ml) was drawn from the left ventricle and immediately mixed with 0.05 mL sodium citrate (CCS). The samples were incubated at room temperature for 30 min and centrifuged at 8000 rpm. The plasma was collected and stored at −80° C. for future use Immediately after the blood was drawn, the mice were perfused with ice-cold normal saline via the ascending aorta until the perfusion buffer was clear from the right atrium. The brains were removed and weighed. Brain tissues were homogenized with buffer, and centrifuged at 14000 rpm for 10 min. Supernatants were collected and stored at −80° C. The concentrations of TAK-242 were detected by Intertek (USA) using Liquid Chromatography with Tandem Mass Spectrometry Detection (LC-MS/MS). Briefly, TAK-242 and internal standard (Bromfenac) were extracted from 50 μL of mouse plasma or brain homogenate by liquid-liquid extraction using methyltertiary-butyl ether (MTBE). After evaporation to dryness and reconstitution, the extracts were analyzed by LC-MS/MS. Run times were approximately 5 min. The Lower Limit of Quantitation (LLOQ) for TAK-242 is 0.5 ng/ml for plasma and 2 ng/g for brain homogenate.

[2] = tested on: mice subjected to acute cerebral I/R; assay: Assessment of cerebral infarct size by TTC staining after focal cerebral ischemia/reperfusion (MCAO); details: 24 hrs after cerebral I/R, 3 mg/kg i.p. 1 hr after ischemia
Description: Animals—Fifty male mice (C57BL/6J, body weight 25˜30 g) were obtained from Jackson Laboratory and maintained in the Division of Laboratory Animal Resources at Emory University”. The experiments outlined in this manuscript conform to the Guide for the Care and Use of Laboratory Animals published by the National Institutes of Health. The animal care and experimental protocols were approved by the Emory University Committee on Animal Care. […]
Focal cerebral ischemia/reperfusion—Focal cerebral FR was induced by occlusion of the middle cerebral artery (MCAO) on the left side. […] Heart rate and PO2 were monitored during surgery. […]
Assessment of cerebral infarct size—Twenty-four hours after FR, mice were sacrificed and perfused with ice-cold phosphate buffered saline (PBS) via the ascending aorta. […] The infarct areas were traced and quantified with ImageJ analysis system. […] The area of infarction and the area of both hemispheres were calculated for each brain slice. An edema index was calculated by dividing the total volume of the left hemisphere by the total volume of the right hemisphere. The actual infarct volume adjusted for edema was calculated by dividing the infarct volume by the edema index. Infarct volumes are expressed as percentage of the total brain volume±S.E.M.

[3] = tested on: mice subjected to acute cerebral I/R; assay: Evaluation of neurological score after focal cerebral ischemia/reperfusion (MCAO); details: 24 hrs after cerebral I/R; 3 mg/kg i.p. 1 hr after ischemia; scale 0 to 15, 15 perfect; control group 4.38
Description: as §1
Focal cerebral ischemia/reperfusion—Focal cerebral FR was induced by occlusion of the middle cerebral artery (MCAO) on the left side. Mice were subjected to anesthesia by 5.0% isoflurane and maintained by inhalation of 1.5% to 2% isoflurane driven by 100% oxygen flow. Mice were ventilated (110 breaths/min with volume 0.5 ml) and body temperature was regulated at 37.0° C. Heart rate and PO2 were monitored during surgery. […]
Evaluation of neurological score—Mice were scored by a blinded investigator. […]

[4] = tested on: inflammatory cytokines in ischemic brain; assay: Antibody array of inflammatory cytokines in ischemic brain tissue; details: 6 hrs after cerebral I/R; 3 mg/kg i.p.; vs untreated controls, p<0.05
Description: as §1, §2, §3
Antibody array—Proteins were prepared from ischemic cerebral hemispheres. Forty inflammatory cytokines were analyzed by antibody arrays (RayBio® Cytokine Antibody Arrays—Mouse Inflammation Antibody Array G Series I). Briefly, the glass chips were air-dried for 60 min and assembled into an incubation chamber and incubation frame. […] The signal data was collected and analyzed by software from RayBiotech, Inc. (Atlanta, Ga., USA). […]

[5] = hemisphere contralateral to ischemia, brain tissue, read-out: concentration of TAK-242 in hemisphere contralateral to ischemia
[6] = ischemic (ipsilateral) hemisphere, brain tissue, read-out: concentration of TAK-242 in ischemic (ipsilateral) hemisphere
[7] = plasma, mice with tMCAO, read-out: concentration of TAK-242 in plasma

CCOC(=O)C1=CCCC[C@H]1S(=O)(=O)Nc1ccc(F)cc1Cl [TAK-242, ethyl (6R)-6-[N-(2-chloro-4-fluorophenyl)sulfamoyl]cyclohex-1-ene-1-carboxylate]
ability to pass through the blood brain barrier (BBB) ([1]; 3 mg/kg i.p., mice): passes the blood-brain barrier; also recorded: can pass through the BBB | concentration in ischemic hemisphere compared with contralateral hemisphere ([1]; 3 mg/kg i.p., p<0.05): significantly higher | concentration at 3 h [1, 5]: 14.2 ng/mL | concentration at 8 h [1, 5]: 15.1 ng/mL | concentration at 24 h [1, 5]: 17.5 ng/mL | concentration at 3 h [1, 6]: 26.1 ng/mL | concentration at 8 h [1, 6]: 26.4 ng/mL | concentration at 24 h [1, 6]: 25 ng/mL | concentration at 3 h [1, 7]: 52 ng/mL | concentration at 8 h [1, 7]: 54.1 ng/mL | concentration at 24 h [1, 7]: 22.6 ng/mL | brain infarct size ([2]; control group 21.3%): 12.5% | reduction of brain infarct size compared to control mice ([2]; p<0.05): 41% | neurological score [3]: 6.73 | level of MCP-1 in brain tissue [4]: significantly reduced | level of MIP-1γ in brain tissue [4]: significantly reduced | level of TIMP-1 in brain tissue [4]: significantly reduced | level of sTNF RII in brain tissue [4]: significantly reduced
